Assay results reported in ChEMBL document CHEMBL4680308, “Chemo-enzymatic synthesis of adenine substituted nicotinic acid adenine dinucleotide phosphate (NAADP) analogs” (Bioorg Med Chem, 2021).

Legend:
[1] = Desensitization of NAADP receptor in sea urchin egg homogenate assessed as ability to induce time dependent sub-threshold desensitization of calcium release pretreated for 7 mins followed by 1 uM NAADP added by measuring inhibition of calcium release by fluorometric assay; assay type: tissue-based, Strongylocentrotus purpuratus
[2] = Agonist activity at NAADP receptor in sea urchin egg homogenate assessed as increase in calcium release by fluo-3 based flurometric assay; assay type: tissue-based, Strongylocentrotus purpuratus

| EC50 [2] | SMILES | IC50 [1] |
| --- | --- | --- |
| 8 nM | Nc1ncnc2c1ncn2[C@@H]1O[C@H](COP(=O)(O)OP(=O)(O)OC[C@H]2O[C@@H]([n+]3cccc(C(=O)[O-])c3)[C@H](O)[C@@H]2O)[C@@H](O)[C@H]1OP(=O)(O)O | 0.14 nM |
| 710 nM | C#Cc1nc2c(N)ncnc2n1[C@@H]1O[C@H](COP(=O)(O)OP(=O)(O)OC[C@H]2O[C@@H]([n+]3cccc(C(=O)[O-])c3)[C@H](O)[C@@H]2O)[C@@H](O)[C@H]1OP(=O)(O)O | 12.1 nM |
| 2860 nM | C#Cc1nc2c(N)ncnc2n1[C@@H]1O[C@H](COP(=O)(O)OP(=O)(O)OC[C@H]2O[C@@H]([n+]3cc(N=[N+]=[N-])cc(C(=O)[O-])c3)[C@H](O)[C@@H]2O)[C@@H](O)[C@H]1OP(=O)(O)O | 99 nM |
